Laboratory results taken from US9550782B2, “Compounds and methods for treating diabetes” (Medivation Technologies, Inc., priority 2011, dated 2017).
“And” between values parts separate entries of the source, which are not always exact repeats. Equal values may be shown once.

How the values were obtained:
[1] = target: T1, human recombinant adrenergic α2A receptor (Homo sapiens, UniProt P08913); assay: Radioligand binding, adrenergic α2A ([3H]MK-912); conditions: [3H]MK-912
T1 construct: expressed in transfected cells; host or cells: insect Sf9 cells
T1 sequence (P08913 1-465): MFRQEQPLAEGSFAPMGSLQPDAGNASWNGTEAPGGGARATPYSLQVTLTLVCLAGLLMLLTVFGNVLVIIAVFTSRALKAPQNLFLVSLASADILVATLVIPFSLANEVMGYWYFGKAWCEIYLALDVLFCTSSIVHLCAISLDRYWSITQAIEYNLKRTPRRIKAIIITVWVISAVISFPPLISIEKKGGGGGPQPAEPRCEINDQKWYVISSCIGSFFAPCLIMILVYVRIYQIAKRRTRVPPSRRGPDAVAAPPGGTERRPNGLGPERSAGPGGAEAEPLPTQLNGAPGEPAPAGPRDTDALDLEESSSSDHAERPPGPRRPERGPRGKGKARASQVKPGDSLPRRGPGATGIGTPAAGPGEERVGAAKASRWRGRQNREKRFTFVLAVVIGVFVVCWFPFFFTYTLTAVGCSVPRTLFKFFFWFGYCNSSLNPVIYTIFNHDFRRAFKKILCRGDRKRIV
Procedure, shortened: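 In 50 mM Tris-HCl (pH 7.4) containing 12.5 mM MgCl2 and 2 mM EDTA, Sf9-expressed receptor was exposed to test compound plus 1 nM [3H]MK-912 at 25 °C for 60 min. Specific binding, corrected using 10 μM WB-4101, was quantified by filtration and counting and expressed as percent inhibition.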

[2] = target: T2, human recombinant adrenergic α2B receptor (Homo sapiens, UniProt P18089); assay: Radioligand binding, adrenergic α2B ([3H]Rauwolscine); conditions: for Percentage inhibition of ligand binding, Adrenergic α2B (0.03 μM): repeat datapoints each shown
T2 construct: expressed in transfected cells; host or cells: CHO-K1
T2 sequence (P18089 1-450): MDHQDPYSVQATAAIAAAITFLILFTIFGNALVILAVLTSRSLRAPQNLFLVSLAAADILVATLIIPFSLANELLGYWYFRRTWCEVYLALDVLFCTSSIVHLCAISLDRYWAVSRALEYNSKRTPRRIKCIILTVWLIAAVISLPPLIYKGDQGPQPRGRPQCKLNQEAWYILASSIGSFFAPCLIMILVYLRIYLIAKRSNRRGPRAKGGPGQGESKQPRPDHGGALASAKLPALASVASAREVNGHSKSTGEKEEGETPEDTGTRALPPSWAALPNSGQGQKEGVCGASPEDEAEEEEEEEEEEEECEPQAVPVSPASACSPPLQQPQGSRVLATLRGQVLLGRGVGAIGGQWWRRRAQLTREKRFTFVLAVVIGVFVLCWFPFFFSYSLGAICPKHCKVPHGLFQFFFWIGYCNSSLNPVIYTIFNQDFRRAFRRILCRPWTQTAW
Procedure, shortened: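 Receptor expressed in CHO-K1 cells, assayed in 50 mM Tris-HCl pH 7.4 with 12.5 mM MgCl2, 1 mM EDTA and 0.2% BSA. Compounds were incubated with 2.5 nM [3H]Rauwolscine for 60 min at 25° C; 10 μM Prazosin defined non-specific binding. Filter counting gave percent inhibition of specific binding.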

[3] = target: T3, rat adrenergic α1B receptor (Rattus norvegicus, UniProt P15823); assay: Radioligand binding, adrenergic α1B ([3H]Prazosin); design: species or system Wistar Rat
T3 construct: rat adrenergic α1B receptor obtained from Wistar Rat liver; from tissue; host or cells: Wistar rat liver
T3 sequence (P15823 1-515): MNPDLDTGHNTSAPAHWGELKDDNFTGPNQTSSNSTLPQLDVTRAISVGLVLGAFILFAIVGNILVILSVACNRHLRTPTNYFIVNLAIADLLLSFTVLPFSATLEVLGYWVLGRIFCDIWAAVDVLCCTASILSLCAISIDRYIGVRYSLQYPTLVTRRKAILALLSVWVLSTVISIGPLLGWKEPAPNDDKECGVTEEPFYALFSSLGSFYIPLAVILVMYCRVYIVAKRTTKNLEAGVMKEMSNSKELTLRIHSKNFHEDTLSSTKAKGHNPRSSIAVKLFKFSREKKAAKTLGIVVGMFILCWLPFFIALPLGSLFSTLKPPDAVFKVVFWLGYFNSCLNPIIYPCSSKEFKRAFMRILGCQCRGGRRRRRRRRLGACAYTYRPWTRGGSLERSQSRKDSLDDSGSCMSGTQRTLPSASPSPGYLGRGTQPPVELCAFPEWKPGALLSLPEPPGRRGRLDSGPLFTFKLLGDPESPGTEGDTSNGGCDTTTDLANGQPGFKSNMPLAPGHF
Procedure, shortened: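 Incubation ran 60 min at 25 °C in Tris-HCl buffer (50 mM, pH 7.4, 0.5 mM EDTA) with Wistar rat liver α1B receptor. 10 μM phentolamine set non-specific binding.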

[4] = compound at 0.1 μM, repeat datapoints each shown, 0.1 µM
[5] = compound at 0.03 μM, repeat datapoints each shown

Row | SMILES | Percentage inhibition of ligand binding, Adrenergic α2A ([1]; 0.1 μM compound, 0.1 µM) | Percentage inhibition of ligand binding, Adrenergic α2B ([2]; 0.03 μM compound, 0.03 µM) | Percentage inhibition of ligand binding, Adrenergic α1B ([3]; 0.1 μM compound, 0.1 µM) [%] | Percentage inhibition of ligand binding, Adrenergic α2A (0.1 μM) [1, 4] | Percentage inhibition of ligand binding, Adrenergic α2B (0.03 μM) ([2]; compound at 0.03 μM, 0.03 µM) | Percentage inhibition of ligand binding, Adrenergic α1B (0.1 μM) [3, 4] | other results
1 | Cc1ccc2c(c1)c1c(n2CC(O)c2ccncc2Cl)CCN(C)C1 (single isomer, unassigned) [135b] | 22% | 68% | 30 |  |  |  | 
2 | OCCN1CCc2c(c3cc(Cl)ccc3n2CC(O)c2ccncc2)C1 (single isomer, unassigned) [II-93a] |  |  |  |  |  |  | Percentage inhibition of ligand binding, Adrenergic α2A ([1]; compound at 0.1 μM, 0.1 µM): 7%; Percentage inhibition of ligand binding, Adrenergic α2B ([2]; compound at 0.03 μM): 24%; Percentage inhibition of ligand binding, Adrenergic α1B ([3]; compound at 0.1 μM): 6%
3 | Cc1ccc2c(c1)c1c(n2CC(O)c2ccncc2)CC2CCCCN2C1 (racemic) [75c] |  |  |  | −2% | 11% | 59% | 
4 | CN1CCc2c(c3cc(Cl)ccc3n2CC(C)(O)c2ccc(C(F)(F)F)nc2)C1 (single isomer, unassigned) [143b] |  |  | 17 |  |  |  | Percentage inhibition of ligand binding, Adrenergic α2A ([1]; 0.1 μM compound): 0%; Percentage inhibition of ligand binding, Adrenergic α2B ([2]; 0.03 μM compound): 49%
5 | Cc1cnc2c(c1)c1c(n2CC(C)(O)c2ccc(F)cc2)CCN(C)C1 (single isomer, unassigned) [138b] | 4% | 25% | 22 |  |  |  | 
6 | Cc1ccc2c(c1)c1c(n2CC(O)c2cccnc2)CCN(CCO)C1 (single isomer, unassigned) [21b] |  |  |  | −3% | 1% | −2% | 
7 | Cc1ccc2c(c1)c1c(n2CC(C)(O)c2ccc(C)nc2)CN(C)CC1 (single isomer, unassigned) [196a] | 58% and 71% | 93% and 103% | 54.6 |  |  |  | Percentage inhibition of ligand binding, Adrenergic α2A ([1]; 0.03 μM compound): 37%; Percentage inhibition of ligand binding, Adrenergic α1B ([3]; 0.03 μM compound): 30%
8 | Cc1ccc2c(c1)c1c(n2CC(O)c2ccncc2Cl)CCN(C)C1 (single isomer, unassigned) [135a] | 4% | 42% | 60 |  |  |  | 
9 | Cc1ccc2c(c1)c1c(n2CC(O)c2ccccn2)CN(C)CC1 (single isomer, unassigned) [22b] |  |  |  | 0% | 30% | 9% | 
10 | Cc1cnc2c(c1)c1c(n2CCc2ccc(C)nc2)CCN2CCCC12 (stereo not shown) [74b, 10-methyl-7-(2-(6-methylpyridin-3-yl)ethyl)-2,3,5,6,7,1c-hexahydro-1H-pyrido[3′,2′:4,5]pyrrolo[2,3-g]indolizine] |  |  |  | 14% | 27% | 28% | 
11 | Cc1ccc2c(c1)c1c(n2CC(C)(OC(=O)C(C)C)c2cccnc2)CCN(C)C1 (single isomer, unassigned) [146a] | −1% | 37% | 41 |  |  |  | 

Further lines, with some results ahead:

Row | Percentage inhibition of ligand binding, Adrenergic α2A ([1]; 0.1 μM compound, 0.1 µM) | Percentage inhibition of ligand binding, Adrenergic α2B ([2]; 0.03 μM compound, 0.03 µM) | Percentage inhibition of ligand binding, Adrenergic α1B ([3]; 0.1 μM compound, 0.1 µM) [%] | Percentage inhibition of ligand binding, Adrenergic α2A (0.1 μM) [1, 4] | Percentage inhibition of ligand binding, Adrenergic α2B (0.03 μM) ([2]; compound at 0.03 μM, 0.03 µM) | Percentage inhibition of ligand binding, Adrenergic α1B (0.1 μM) [3, 4] | SMILES | other results
12 |  | 30% | 23 |  |  |  | Cc1ccc(CCn2c3c(c4cc(Cl)cnc42)C2CCCN2CC3)cn1 (single isomer, unassigned) [137b] | Percentage inhibition of ligand binding, Adrenergic α2A ([1]; 0.1 μM compound): 6%
13 | −5% | 52% | 23 |  |  |  | Cc1cnc2c(c1)c1c(n2CC(C)(O)c2ccc(C)nc2)CCN2CCCC12 (single isomer, unassigned) [148a] | 
14 | 13% | 52% | 57 |  |  |  | Cc1ccc2c(c1)c1c(n2CC(O)c2ccncc2C)CCN(C)C1 (stereo not shown) [133a] | 
15 |  |  |  | 11% | 20% | 1% | Cc1ccc2c(c1)c1c(n2CC(C)(O)c2ccc[n+]([O-])c2)CCN(C)C1 (single isomer, unassigned) [56a] | 
16 | −12% | 43% | 35 |  |  |  | Cc1cnc2c(c1)c1c(n2CC(N)c2ccc(C#N)cc2)CCNC1 (single isomer, unassigned) [160a] | 
17 |  |  |  | 35% and 39% | 98% and 100% | 32% and 38% | Cc1ccc2c(c1)c1c(n2CC(C)(O)c2ccc(C)nc2)CCN(C)C1 (single isomer, unassigned) [29a] | Percentage inhibition of ligand binding, Adrenergic α2A (0.03 μM) [1, 5]: 16%; Percentage inhibition of ligand binding, Adrenergic α1B (0.03 μM) [3, 5]: 19%
18 |  |  |  | 16% | 22% | 19% | Cc1ccc2c(c1)c1c(n2CC(O)c2ccccn2)CN(C)CC1 (single isomer, unassigned) [22a] | 
19 | 16% | 34% |  |  |  |  | Cc1cnc2c(c1)c1c(n2CC(O)c2ccc(F)cc2)CCN(C)C1 (single isomer, unassigned) [136a] | Percentage inhibition of ligand binding, Adrenergic α1B ([3]; 0.1 μM compound): 54%
20 |  |  |  | −1% | −2% | 5% | Cc1ccc2c(c1)c1c(n2CC(O)c2cccnc2)CCN(CCO)C1 (single isomer, unassigned) [21a] | 
21 |  |  |  | 7% | 27% | 2% | CN1CCc2c(c3ccc(C(F)(F)F)cc3n2CC(O)c2cccnc2)C1 (single isomer, unassigned) [40a] | 
22 |  | 52% | 53 |  |  |  | Cc1cnc2c(c1)c1c(n2CC(N)c2ccc(C#N)cc2)CCN(C)C1 (single isomer, unassigned) [159b] | Percentage inhibition of ligand binding, Adrenergic α2A ([1]; 0.1 μM compound): −12%
23 |  |  |  | 13% | 29% | −2% | CN1CCc2c(c3ccc(C(F)(F)F)cc3n2CC(O)c2cccnc2)C1 (single isomer, unassigned) [40b] | 
24 |  |  |  | 17% | 86% | 14% | CN1CCc2c(c3cccc(Br)c3n2CC(O)c2ccncc2)C1 (single isomer, unassigned) [48b] | 
